Data set [1] deals with C2C12 skeletal muscle cells. The experiment in a line: Toxicity testing: C2C12 cell viability (Calcein AM fluorescence). It is filed as cell-based. Conditions: C2C12 myotubes cultured 5 days in GLT RPMI-1640 medium (28 mM glucose, 200 μM palmitic acid, 200 μM oleic acid) with 100 μM compound. On the procedure: C2C12 muscle cell myotubes were cultured for 5 days in the following […] culture media: a control RPMI-1640 medium; glucolipotoxic (GLT) RPMI-1640 medium (28 mM glucose, 200 μM palmitic acid and 200 μM oleic acid) supplemented with 100 μM of M4; GLT RPMI-1640 medium supplemented with 100 µM of M8; GLT RPMI-1640 medium supplemented with 100 μM of M14; GLT RPMI-1640 medium supplemented with 100 μM of M28; and GLT RPMI-1640 medium supplemented with 100 μM of M38. Following culture, media were aspirated and cells washed 3 times in Krebs-Ringer buffer (KRB). A final concentration of […] Calcein AM Cell Viability Dye (ThermoFischer) in KRB was loaded for 1 h before washing again with KRB. Cell viability was measured via fluorescence, with excitation and emission at 490 nm and 520 nm, respectively.

Data set [2] relates to C2C12 skeletal muscle cells. The experiment in a line: Reactive species scavenging in C2C12 cells (DCFDA fluorescence). It is filed as cell-based. Conditions: C2C12 cells in GLT RPMI-1640 medium 5 days, 100 μM compound. On the procedure: C2C12 muscle cell myotubes were cultured for 5 days in standard RPMI-1640 tissue culture media or GLT RPMI-1640 media. Corresponding media were independently supplemented with 100 μM of a compound (M4, M14, M8, M28, and M38 investigated). Non-supplemented standard and GLT RPMI-1640 media were also retained as controls. Cells were thereafter washed 3 times in KRB and 20 μM 2′,7′-dichlorofluorescein diacetate (DCFDA), a cell permeant fluorogenic dye that measures hydroxyl, peroxyl and other ROS, was loaded for 1 h. Reactive species detection was measured via fluorescence, with excitation at 495 nm and emission at 530 nm.

The subject of data set [3] is C2C12 skeletal muscle cells. The experiment in a line: Glucose uptake (2-deoxy glucose) in C2C12 skeletal muscle cells. It is filed as cell-based. The following applies: C2C12 cells 5 days in GLT DMEM medium with 100 μM compound; 100 nM insulin 1 h. On the procedure: C2C12 skeletal muscle cell myotubes were cultured for 5 days in standard DMEM tissue culture media or GLT DMEM media. The media were either used without further supplementation (used as controls) or were independently supplemented with 100 μM of a compound (M4, M8, M14, M28, and M38 investigated). Myotubes were then serum-starved overnight in DMEM supplemented with 5 mM glucose, and thereafter incubated for 1 h in glucose-free DMEM or in glucose-free DMEM supplemented with 100 nM insulin stimulant. The media were thereafter replaced with phosphate buffered saline (PBS) containing 0.125 mM 2-deoxy glucose (2-DG). Glucose uptake reactions were conducted for 30 min, and then terminated by addition of stop buffer (0.4 M HCl+2% dodecyl trimethyl ammonium bromide). 2-deoxyglucose-6-phosphate (2DG6P) detection reagent was applied, and data were acquired using a CLARIOStar luminometer (BMG Labtech, Ortenberg, Germany).

The subject of data set [4] is High fat-fed mice. The experiment in a line: Effect on body weight in an in vivo model of obesity. Conditions: high fat diet mice, 45 mg/kg body weight/day via drinking water, 10 weeks. As to the method:
High fat-fed mice were used as an animal model of obesity. The body weights of the mice were monitored over a period of 10 weeks. The following three sets of mice were used in the study: • Non-high fat-fed mice that were administered a normal diet. • High fat-fed mice that were administered a high fat diet. • High fat-fed mice that were administered a high fat diet alongside 45 mg/kg body weight/day of compound M8, which was administered via drinking water.
High fat-fed mice were fed the following high fat diet from Research Diets: (60% fat; D12492). Non-high fat-fed mice were used as a control and were fed the following low fat diet from Research Diets: (10% fat, D12450B). The body weights of the mice were measured throughout.

Each structure is given as a SMILES string. Entries after “also recorded” stand apart in the source; their conditions may differ.

As for `OCc1ccc(Cn2ccnc2)cc1` [M38, [4-(1H-imidazol-1-ylmethyl)phenyl]methanol], the “cell viability (% change relative to control)” value in data set [1] was “none of the tested compounds (M4, M8, M14, M28, and M38) reduce C2C12 skeletal muscle cell viability; also recorded: non-toxic to the cells”. Further, the “intracellular reactive species (% change relative to control)” value in data set [2] is “reduces GLT-associated reactive species levels”. In data set [3], the “insulin-stimulated glucose uptake per total cellular protein” value is recorded as “reverse glucolipotoxic inhibition of insulin-stimulated glucose uptake”.

`CNCc1cc(-c2ccccc2)no1` [M14, 5-[(methylamino)methyl]-3-phenylisoxazole]: the “cell viability (% change relative to control)” value in data set [1] was “none of the tested compounds (M4, M8, M14, M28, and M38) reduce C2C12 skeletal muscle cell viability; also recorded: non-toxic to the cells”. The “intracellular reactive species (% change relative to control)” value in data set [2] is reported as “reduces GLT-associated reactive species levels”. The “insulin-stimulated glucose uptake per total cellular protein” value in data set [3] is recorded as “reverse glucolipotoxic inhibition of insulin-stimulated glucose uptake”.

In the case of `NCc1cc(-c2ccccc2)no1` [M28, (3-phenyl-5-isoxazolyl)methanamine], the “cell viability (% change relative to control)” value in data set [1] is “none of the tested compounds (M4, M8, M14, M28, and M38) reduce C2C12 skeletal muscle cell viability; also recorded: non-toxic to the cells”. The “intracellular reactive species (% change relative to control)” value in data set [2] was “reduces GLT-associated reactive species levels”. Further, the “insulin-stimulated glucose uptake per total cellular protein” value in data set [3] is on record as “reverse glucolipotoxic inhibition of insulin-stimulated glucose uptake”.

Regarding `CNCc1ccc(-c2ccco2)nc1` [M8, 6-(2-furanyl)-N-methyl-3-pyridinemethanamine], the “cell viability (% change relative to control)” value in data set [1] is “none of the tested compounds (M4, M8, M14, M28, and M38) reduce C2C12 skeletal muscle cell viability; also recorded: non-toxic to the cells”. In addition, in data set [2], the “intracellular reactive species (% change relative to control)” value was “reduces GLT-associated reactive species levels”. Moreover, the “insulin-stimulated glucose uptake per total cellular protein” value in data set [3] is recorded as “reverse glucolipotoxic inhibition of insulin-stimulated glucose uptake”. In data set [4], the “toxic effects on the animals” value is “no toxic effects on the animals”. Further, the body weight entry in data set [4] (vs high fat-fed mice without compound, 45 mg/kg/day) is on record as “significantly reduces the body weight; also recorded: significant reduction of body weight”.

Regarding `FC(F)(F)c1ccc(-n2ccnc2)nc1` [M4, 2-(1H-imidazol-1-yl)-5-(trifluoromethyl)pyridine], in data set [1], the “cell viability (% change relative to control)” value was “none of the tested compounds (M4, M8, M14, M28, and M38) reduce C2C12 skeletal muscle cell viability; also recorded: non-toxic to the cells”. The “intracellular reactive species (% change relative to control)” value in data set [2] is “reduces GLT-associated reactive species levels”. Further, the “insulin-stimulated glucose uptake per total cellular protein” value in data set [3] was “reverse glucolipotoxic inhibition of insulin-stimulated glucose uptake”.

The values above are taken from US20240325364A1, “COMPOSITIONS FOR USE IN THE TREATMENT OF METABOLIC SYNDROME” (Nottingham Trent University, priority 2021, published 2024).
